Measurements reported in patent publication US20260262643A1, “HERBICIDAL BENZOXAZINES” (FMC CORPORATION, priority 2022, published 2026).

Key:
[1] = system: rice; assay: Test D flooded paddy test; format: in vivo, Oryza sativa; conditions: 250 g ai/ha, applied to paddy water, visual rating after 13 to 14 days, scale 0 to 100 (0 no effect, 100 complete control)
How it was run: (§1)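 Plants grown to the 2-leaf stage; pots flooded to 3 cm above soil at treatment and held at that depth throughout. Test compounds applied directly to the paddy water. After 13 to 14 days in a greenhouse, response was rated visually versus controls on a 0 (no effect) to 100 (complete control) scale.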

[2] = system: ragweed; assay: Test C preemergence; format: in vivo, Ambrosia artemisiifolia; conditions: 0 to 100 scale (0 no effect, 100 complete control)
How it was run: (§2)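 Seeds in loam–sand blend received preemergence directed soil spray of test chemicals in non-phytotoxic solvent with surfactant; postemergence treatment was applied at one- to two-leaf stage (2–10 cm). After 10 days in greenhouse, injury rated visually versus untreated controls, 0 (no effect) to 100 (complete control).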

[3] = system: oat, wild; assay: Test C postemergence; format: in vivo, Avena fatua; conditions: 10 days
How it was run: as §2

[4] = system: blackgrass; assay: Test C postemergence; format: in vivo, Alopecurus myosuroides; conditions: 10 days
How it was run: as §2

[5] = system: green foxtail; assay: Test C preemergence; format: in vivo, Setaria viridis; conditions: 0 to 100 scale (0 no effect, 100 complete control)
How it was run: as §2

[6] = system: ducksalad; assay: Test D flooded paddy test; format: in vivo, Heteranthera limosa; conditions: 250 g ai/ha, applied to paddy water, visual rating after 13 to 14 days, scale 0 to 100 (0 no effect, 100 complete control)
How it was run: as §1

[7] = system: barnyardgrass; assay: Test C postemergence; format: in vivo, Echinochloa crusgalli; conditions: 10 days
How it was run: as §2

[8] = system: wheat; assay: Test C postemergence; format: in vivo, Triticum aestivum; conditions: 10 days
How it was run: as §2

[9] = system: pigweed, palmer; assay: Test C preemergence; format: in vivo, Amaranthus palmeri; conditions: Preemergence, 500 g ai/ha; visual rating after 10 days, 0 to 100 scale (0 no effect, 100 complete control)
How it was run: as §2

[10] = system: ryegrass, Italian; assay: Test C postemergence; format: in vivo, Lolium multiflorum; conditions: 10 days
How it was run: as §2

[11] = system: barnyardgrass; assay: Test D flooded paddy test; format: in vivo, Echinochloa crus-galli; conditions: 250 g ai/ha, applied to paddy water, visual rating after 13 to 14 days, scale 0 to 100 (0 no effect, 100 complete control)
How it was run: as §1

[12] = system: ryegrass, Italian; assay: Test C preemergence; format: in vivo, Lolium multiflorum; conditions: 0 to 100 scale (0 no effect, 100 complete control)
How it was run: as §2

[13] = system: kochia; assay: Test C postemergence; format: in vivo, Bassia scoparia; conditions: 10 days
How it was run: as §2

[14] = system: galium; assay: Test C postemergence; format: in vivo, Galium aparine; conditions: 10 days
How it was run: as §2

[15] = system: sedge, umbrella; assay: Test D flooded paddy test; format: in vivo, Cyperus difformis; conditions: 250 g ai/ha, applied to paddy water, visual rating after 13 to 14 days, scale 0 to 100 (0 no effect, 100 complete control)
How it was run: as §1

[16] = system: kochia; assay: Test C preemergence; format: in vivo, Bassia scoparia; conditions: 0 to 100 scale (0 no effect, 100 complete control)
How it was run: as §2

[17] = system: soybean; assay: Test C postemergence; format: in vivo, Glycine max; conditions: 10 days
How it was run: as §2

[18] = system: wheat; assay: Test C preemergence; format: in vivo, Triticum aestivum; conditions: 0 to 100 scale (0 no effect, 100 complete control)
How it was run: as §2

[19] = system: ragweed; assay: Test C postemergence; format: in vivo, Ambrosia artemisiifolia; conditions: 10 days
How it was run: as §2

[20] = system: corn; assay: Test C postemergence; format: in vivo, Zea mays; conditions: 10 days
How it was run: as §2

[21] = system: green foxtail; assay: Test C postemergence; format: in vivo, Setaria viridis; conditions: 10 days
How it was run: as §2

[22] = system: corn; assay: Test C preemergence; format: in vivo, Zea mays; conditions: 0 to 100 scale (0 no effect, 100 complete control)
How it was run: as §2

[23] = system: horseweed; assay: Test C postemergence; format: in vivo, Erigeron canadensis; conditions: 10 days
How it was run: as §2

[24] = system: soybean; assay: Test C preemergence; format: in vivo, Glycine max; conditions: 0 to 100 scale (0 no effect, 100 complete control)
How it was run: as §2

[25] = system: blackgrass; assay: Test C preemergence; format: in vivo, Alopecurus myosuroides; conditions: 0 to 100 scale (0 no effect, 100 complete control)
How it was run: as §2

[26] = system: oat, wild; assay: Test C preemergence; format: in vivo, Avena fatua; conditions: 0 to 100 scale (0 no effect, 100 complete control)
How it was run: as §2

[27] = system: barnyardgrass; assay: Test C preemergence; format: in vivo, Echinochloa crusgalli; conditions: 0 to 100 scale (0 no effect, 100 complete control)
How it was run: as §2

[28] = system: pigweed, palmer; assay: Test C postemergence; format: in vivo, Amaranthus palmeri; conditions: 10 days
How it was run: as §2

[29] = Preemergence, 500 g ai/ha, visual rating after 10 days
[30] = Test C, preemergence, 125 g ai/ha
[31] = 125 g ai/ha, postemergence, 0 to 100 scale, 0 no effect, 100 complete control
[32] = Postemergence, 500 g ai/ha, visual 0 to 100 scale (0 no effect, 100 complete control)

For `Cc1cccc2c1O[C@H](C)CN2C(=O)c1cccc(-c2ncn(C(C)C)n2)c1` [Compound 221], the “Plant response rating, Rice (Flood)” value [1] was 0, the “Plant response rating, Ragweed” value [2, 29] was 0 and the “Ragweed plant response rating” value [2, 30] was 0. The “Plant response rating, Oat, Wild” value [3, 31] was 0, the “Plant response rating, Oat, Wild” value [3, 32] was 0 and the “Plant response rating, Blackgrass” value [4, 31] was 0. For the same compound, the “Plant response rating, Blackgrass” value [4, 32] was 0, the “Plant response rating, Foxtail, Green” value [5, 29] was 0 and the “Foxtail, Green plant response rating” value [5, 30] was 0. The “Plant response rating, Ducksalad (Flood)” value [6] was 0, the “Plant response rating, Barnyardgrass” value [7, 31] was 0 and the “Plant response rating, Barnyardgrass” value [7, 32] was 10. The “Plant response rating, Wheat” value [8, 31] was 0, the “Plant response rating, Wheat” value [8, 32] was 0 and the “Plant response rating, Pigweed, Palmer” value [9] was 0. For the same compound, the “Plant response rating, Ryegrass, Italian” value [10, 31] was 0, the “Plant response rating, Ryegrass, Italian” value [10, 32] was 0 and the “Plant response rating, Barnyardgrass (Flood)” value [11] was 0. For the same compound, the “Plant response rating, Ryegrass, Italian” value [12, 29] was 0, the “Ryegrass, Italian plant response rating” value [12, 30] was 0 and the “Plant response rating, Kochia” value [13, 31] was 0. For the same compound, the “Plant response rating, Kochia” value [13, 32] was 0, the “Plant response rating, Galium” value [14, 31] was 0 and the “Plant response rating, Galium” value [14, 32] was 0. The “Plant response rating, Sedge, Umbrella (Flood)” value [15] was 0, the “Plant response rating, Kochia” value [16, 29] was 0 and the “Kochia plant response rating” value [16, 30] was 0. The “Plant response rating, Soybean” value [17, 31] was 0, the “Plant response rating, Soybean” value [17, 32] was 0 and the “Plant response rating, Wheat” value [18, 29] was 0. The “Wheat plant response rating” value [18, 30] was 0, the “Plant response rating, Ragweed” value [19, 31] was 0 and the “Plant response rating, Ragweed” value [19, 32] was 0. For the same compound, the “Plant response rating, Corn” value [20, 31] was 0, the “Plant response rating, Corn” value [20, 32] was 0 and the “Plant response rating, Foxtail, Green” value [21, 31] was 0. The “Plant response rating, Foxtail, Green” value [21, 32] was 0, the “Plant response rating, Corn” value [22, 29] was 0 and the “Corn plant response rating” value [22, 30] was 0. For the same compound, the “Plant response rating, Horseweed” value [23, 31] was 0, the “Plant response rating, Horseweed” value [23, 32] was 20 and the “Plant response rating, Soybean” value [24, 29] was 0. For the same compound, the “Soybean plant response rating” value [24, 30] was 0, the “Plant response rating, Blackgrass” value [25, 29] was 0 and the “Blackgrass plant response rating” value [25, 30] was 0. For the same compound, the “Plant response rating, Oat, Wild” value [26, 29] was 0, the “Oat, Wild plant response rating” value [26, 30] was 0 and the “Plant response rating, Barnyardgrass” value [27, 29] was 0. For the same compound, the “Barnyardgrass plant response rating” value [27, 30] was 0, the “Plant response rating, Pigweed, Palmer” value [28, 31] was 0 and the “Plant response rating, Pigweed, Palmer” value [28, 32] was 0.
